Laboratory results: US6407227B1, “Process for the crystallization of lactitol” (Xyrofin Oy, priority 1997, dated 2002)

Key:
[1] = Solubility Test 1: equilibrium solubility of lactitol crystals in water; format: physicochemical
Experimental: The determination of the solubility and stability of lactitol crystals in water was made as follows:
The lactitol, which was used in the tests, was high grade lactitol monohydrate Lactitol MC (batch 21769) manufactured by Xyrofin OY, Finland according to EP Patent 0456636. This monohydrate was also used as seed crystals. When lactitol dihydrate was studied at 45° C. and 55 ° C., lactitol dihydrate produced at the applicant's research laboratory Dec. 20, 1994 (crystallization No. 3) was used both for solution and as seed crystals. […] The water, which was used, was distilled water.
At 35° C. the supersaturation was 10 g/100 g. […] The solutions were made by dissolving the monohydrate into water at a temperature above the solubility temperature. The solutions which were used at 65° C. and 75° C. were made by evaporating with a vacuum rotating flask evaporator. The concentrations were determined by refractometric indexes (RI). At the temperatures of 5° C., 10° C. and 15° C. the solutions were made in a 2-liter jacketed vessel. The other solutions were made in 200 ml or 250 ml measurement bottles.
When the lactitol had dissolved, the solution was cooled to the test temperature. The solution was seeded with softly crushed monohydrate crystals (2 tests with dihydrate crystals). In the measurement bottles the solutions were stirred with a magnetic stirrer and in the jacketed vessel with a motor driven mixer.
The crystallization of lactitol and the equilibration of the solution was monitored by measuring the refractometric index (RI) of the mother liquid. Before taking a sample, the crystals were allowed settle on the bottom of the vessel, so that the measurement of the RI would be as exact as possible. […] Thus, the RI of the mother liquid was measured from a suspension of crystals and solution. At the end point of the measurement the waiting time was so long that the mother liquid was clearly separated and after that the RI of the mother liquid was measured. The RIs were measured below 55° C. with an Index Instruments GPR-11-37 refractometer and above 55° C. with a Zeiβ refractometer, both of which were calibrated.
The equilibration of the solution was generally monitored for 7 . . . 14 days, but only for 3 days, when dihydrate was used as seed crystals. […] 150° C. and reading accuracy of 0.2° C. The accuracy of this thermometer was checked against a calibrated thermometer.
After the crystal suspension had reached equilibrium, the crystals were separated by centrifuging 15 min 5000 rpm using a thick cloth. One part of the crystals was dried at 60° C. in a drying cabinet over a night. The water contents of both undried and dried crystals were analyzed by the Karl Fischer method or by a coulometric Karl Fischer method. Furthermore, melting behaviors were analyzed.
The final solubilities at the studied temperatures are shown in Tables 2 and 3 in addition to the crystal forms. The crystal form was concluded from the water contents of the undried crystals and from the melting ranges. The water contents are shown in Tables 4 and 5 and melting behaviors in Table 6.

[2] = Linear curve fittings of the solubility points and stability areas from intersections of solubility curves; format: physicochemical; conditions: for solubility line s as function of temperature t (linear fitting): t in ° C., s = weight of lactitol/(weight of lactitol+weight of water)×100%, between 100 and 0 ° C.
Source text: The solubility data of Table 2 was combined with some earlier solubility measurement data. The curve fittings of the solubility points were made as linear fittings, when % by weight is used as a concentration unit. […] The fittings were made with the aid of the spread sheet program Excel 5.0^R. The solubility equations of the different hydrate forms are shown in Equations (I) to (IV): [formula]
The fitting of the trihydrate cannot be considered absolutely exact because only three measurement points were used for fitting: one exact point, one uncertain point and one calculatory point.
The solubility points and the curve fittings are shown in a graph in FIG. 1. […] From the intersections of solubility curves it is possible to conclude the stability areas of the different lactitol forms.

For OC[C@@H](O)[C@@H](O[C@@H]1O[C@H](CO)[C@H](O)[C@H](O)[C@H]1O)[C@H](O)[C@@H](O)CO [dihydrate, lactitol dihydrate], the Solubility ([1]; 10.2 ° C., lactitol monohydrate used as seed crystals) was 45.7 g/100 g, the Solubility ([1]; 15.0 ° C., lactitol monohydrate used as seed crystals) was 48.8 g/100 g and the Solubility ([1]; 25.6 ° C., lactitol monohydrate used as seed crystals) was 56.3 g/100 g. The Solubility ([1]; 35.0 ° C., lactitol monohydrate used as seed crystals) was 61.7 g/100 g, the Solubility ([1]; 45.0 ° C., lactitol dihydrate used as seed crystals) was 69.1 g/100 g and the “solubility line s as function of temperature t (linear fitting)” value (“solubility line s as function” below) ([2]; dihydrate) was 39.7+0.6332t.

OC[C@@H](O)[C@@H](O[C@@H]1O[C@H](CO)[C@H](O)[C@H](O)[C@H]1O)[C@H](O)[C@@H](O)CO [monohydrate, lactitol monohydrate] showed a Solubility ([1]; 54.7 ° C., lactitol dihydrate used as seed crystals) of 73.4 g/100 g, a Solubility ([1]; 55.0 ° C., lactitol monohydrate used as seed crystals) of 75.2 g/100 g and a Solubility ([1]; 65.0 ° C., lactitol monohydrate used as seed crystals) of 79.6 g/100 g. The “solubility line s as function” value ([2]; monohydrate) was 50.2+0.4346t.

In the case of OC[C@@H](O)[C@@H](O[C@@H]1O[C@H](CO)[C@H](O)[C@H](O)[C@H]1O)[C@H](O)[C@@H](O)CO [trihydrate, lactitol trihydrate], the Solubility ([1]; 5.1 ° C., lactitol monohydrate used as seed crystals) is reported as 42.3 g/100 g, the “stability area (temperature)” value ([2]; in water, from the intersections of solubility curves, trihydrate) is reported as under 12 °C and the “solubility line s as function” value ([2]; trihydrate) is reported as 33.4+1.1482t.
